Laboratory results reported in publication PMC12638379, “An innovative approach to development of new pyrazolylquinolin-2-one hybrids as dual EGFR and BRAF^V600E inhibitors” (Molecular Diversity, 2025).
Where two headings read alike, the source gives them in different places.

System: NCI 60 cancer cell lines
Assay: NCI anticancer screening over a panel of 60 cancer cells, single concentration 10 µM
Assay type: cell-based, human
Settings: Homo sapiens, read-out: % Growth Inhibition (GI %)
Method in brief: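 Run under the NCI Compound Evaluation Branch protocol, each compound was tested once at 10 µM. The panel comprised 60 cancer cell lines of diverse tissue origin, including leukemia, lung, colon, CNS, renal, ovarian, breast and prostate.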

Work on `C/C(=N\Nc1ccc(C(=O)O)cc1)c1cnn(-c2cc(=O)[nH]c3ccc(Br)cc23)c1C` [Compound 4j, (E)-4-(2-(1-(1-(6-bromo-2-oxo-1,2-dihydroquinolin-4-yl)-5-methyl-1H-pyrazol-4-yl)ethylidene)hydrazineyl)benzoic acid] yielded an inhibition at 10 µM (786-0, Renal cancer 786-0, 10 μM) of less than 5%, an inhibition at 10 µM (A498, Renal cancer A498, 10 μM) of less than 5% and an inhibition at 10 µM (A549, Non-small cell lung cancer A549/ATCC, 10 μM) of less than 5%. It also gave an inhibition at 10 µM (ACHN, Renal cancer ACHN, 10 μM) of less than 5%, an inhibition at 10 µM (BT-549, Breast cancer BT-549, 10 μM) of less than 5% and an inhibition at 10 µM (CAKI-1, Renal cancer CAKI-1, 10 μM) of 14.7%. It also gave an inhibition at 10 µM (CCRF-CEM, Leukemia CCRF-CEM, 10 μM) of less than 5%, an inhibition at 10 µM (COLO 205, Colon cancer COLO 205, 10 μM) of less than 5% and an inhibition at 10 µM (DU-145, Prostate cancer DU-145, 10 μM) of less than 5%. The inhibition at 10 µM (EKVX, Non-small cell lung cancer EKVX, 10 μM) was 6.05%, the inhibition at 10 µM (HCC 2998, Colon cancer HCC-2998, 10 μM) was less than 5% and the inhibition at 10 µM (HCT-15, Colon cancer HCT-15, 10 μM) was less than 5%. For the same molecule, the inhibition at 10 µM (HCT-116, Colon cancer HCT-116, 10 μM) was less than 5%, the inhibition at 10 µM (HL-60, Leukemia HL-60(TB), 10 μM) was 7.02% and the inhibition at 10 µM (HOP-62, Non-small cell lung cancer HOP-62, 10 μM) was 5.55%. The inhibition at 10 µM (HOP-92, Non-small cell lung cancer HOP-92, 10 μM) was less than 5%, the inhibition at 10 µM (HT-29, Colon cancer HT29, 10 μM) was less than 5% and the inhibition at 10 µM (Hs-578T, Breast cancer HS 578T, 10 μM) was 11.7%. The inhibition at 10 µM (IGROV-1, Ovarian cancer IGROV1, 10 μM) was less than 5%, the inhibition at 10 µM (K562, Leukemia K-562, 10 μM) was less than 5% and the inhibition at 10 µM (KM12, Colon cancer KM12, 10 μM) was less than 5%. The inhibition at 10 µM (LOX IMVI, Melanoma LOX IMVI, 10 μM) was less than 5%, the inhibition at 10 µM (Leukemia SR, 10 μM) was 7.14% and the inhibition at 10 µM (MCF7, Breast cancer MCF7, 10 μM) was less than 5%. For the same molecule, the inhibition at 10 µM (MDA-MB-231, Breast cancer MDA-MB-231/ATCC, 10 μM) was 17%, the inhibition at 10 µM (MDA-MB-435, Melanoma MDA-MB-435, 10 μM) was less than 5% and the inhibition at 10 µM (MDA-MB-468, Breast cancer MDA-MB-468, 10 μM) was less than 5%. The inhibition at 10 µM (MOLT-4, Leukemia MOLT-4, 10 μM) was less than 5%, the inhibition at 10 µM (Melanoma M14, 10 μM) was less than 5% and the inhibition at 10 µM (Melanoma MALM-3M, 10 μM) was 14.4%. It also gave an inhibition at 10 µM (NCI-H23, Non-small cell lung cancer NCI-H23, 10 μM) of less than 5%, an inhibition at 10 µM (NCI-H226, Non-small cell lung cancer NCI-H226, 10 μM) of 5.42% and an inhibition at 10 µM (NCI-H322M, Non-small cell lung cancer NCI-H322M, 10 μM) of less than 5%. The inhibition at 10 µM (NCI-H460, Non-small cell lung cancer NCI-H460, 10 μM) was less than 5%, the inhibition at 10 µM (NCI-H522, Non-small cell lung cancer NCI-H522, 10 μM) was less than 5% and the inhibition at 10 µM (NCI/ADR-RES, Ovarian cancer NCI/ADR-RES, 10 μM) was less than 5%. For the same molecule, the inhibition at 10 µM (OVCAR-3, Ovarian cancer OVCAR-3, 10 μM) was less than 5%, the inhibition at 10 µM (OVCAR-4, Ovarian cancer OVCAR-4, 10 μM) was less than 5% and the inhibition at 10 µM (OVCAR-5, Ovarian cancer OVCAR-5, 10 μM) was less than 5%. For the same molecule, the inhibition at 10 µM (OVCAR-8, Ovarian cancer OVCAR-8, 10 μM) was less than 5%, the inhibition at 10 µM (Prostate cancer PC-3, 10 μM) was less than 5% and the inhibition at 10 µM (RPMI-8226, Leukemia RPMI-8226, 10 μM) was less than 5%. It also gave an inhibition at 10 µM (RXF 393, Renal cancer RXF 393, 10 μM) of less than 5%, an inhibition at 10 µM (SF-268, CNS Cancer SF-268, 10 μM) of less than 5% and an inhibition at 10 µM (SF-295, CNS Cancer SF-295, 10 μM) of less than 5%. The inhibition at 10 µM (SF-539, CNS Cancer SF-539, 10 μM) was 7.41%, the inhibition at 10 µM (SK-MEL-2, Melanoma SK-MEL-2, 10 μM) was less than 5% and the inhibition at 10 µM (SK-MEL-5, Melanoma SK-MEL-5, 10 μM) was less than 5%. For the same molecule, the inhibition at 10 µM (SK-MEL-28, Melanoma SK-MEL-28, 10 μM) was less than 5%, the inhibition at 10 µM (SK-OV-3, Ovarian cancer SK-OV-3, 10 μM) was 4.08% and the inhibition at 10 µM (SN12C, Renal cancer SN12C, 10 μM) was less than 5%. The inhibition at 10 µM (SNB-19, CNS Cancer SNB-19, 10 μM) was less than 5%, the inhibition at 10 µM (SNB-75, CNS Cancer SNB-75, 10 μM) was 17.2% and the inhibition at 10 µM (SW-620, Colon cancer SW-620, 10 μM) was less than 5%. The inhibition at 10 µM (T47D, Breast cancer T-47D, 10 μM) was 7.76%, the inhibition at 10 µM (TK-10, Renal cancer TK-10, 10 μM) was less than 5% and the inhibition at 10 µM (U-251, CNS Cancer U251, 10 μM) was less than 5%. It also gave an inhibition at 10 µM (UACC-62, Melanoma UACC-62, 10 μM) of 6.6%, an inhibition at 10 µM (UACC-257, Melanoma UACC-257, 10 μM) of less than 5% and an inhibition at 10 µM (UO-31, Renal cancer UO-31, 10 μM) of 39.3%.
